In data set [1] the test system is Rattus norvegicus. As to the kind of experiment: Anticonvulsant activity in Rattus norvegicus Wistar (rat) assessed as protection against maximal electroshock-induced seizure at 30 mg/kg, po measured at 0.25 hr. Format: functional, organism-based. On the set-up: dose 30 mg/kg. For orientation: Protection in the maximal electroshock model is a classic sign of anticonvulsant action.

Data set [2] relates to Rattus norvegicus. As to the kind of experiment: Anticonvulsant activity in Rattus norvegicus Wistar (rat) assessed as protection against maximal electroshock-induced seizure at 30 mg/kg, po measured at 4 hr. Format: functional, organism-based. Further details: dose 30 mg/kg.
Data set [3] concerns Rattus norvegicus. As to the kind of experiment: Anticonvulsant activity in Rattus norvegicus Wistar (rat) assessed as protection against maximal electroshock-induced seizure at 30 mg/kg, po measured at 2 hr. Format: functional, organism-based. Further details: dose 30 mg/kg.
Data set [4] concerns Mus musculus. Kind of data set: Anticonvulsant activity in ip dosed Mus musculus Swiss albino (mouse) assessed as protection against maximal electroshock-induced seizure at 4 hr. The format is functional. Particulars: read-out: MED.
Data set [5] concerns Mus musculus. As to the kind of experiment: Anticonvulsant activity in ip dosed Mus musculus Swiss albino (mouse) assessed as protection against strychnine-induced seizure at 4 hr. Format: functional. Particulars: read-out: MED.
Data set [6] in a line: Neurotoxicity against ip dosed Mus musculus Swiss albino (mouse) by rota rod test. Format: toxicity, organism-based. Particulars: in vivo. On the technique in general: In the rotarod test animals must keep their balance on a rotating rod.
Data set [7] deals with Mus musculus. As to the kind of experiment: Anticonvulsant activity in Mus musculus Swiss albino (mouse) assessed as protection against pentylenetetrazole-induced seizure at 300 mg/kg, ip. The format is functional, organism-based. On the set-up: dose 300 mg/kg.
Data set [8] has as its system Mus musculus. As to the kind of experiment: Anticonvulsant activity in Mus musculus Swiss albino (mouse) assessed as protection against pentylenetetrazole-induced seizure at 300 mg/kg, ip measured at 0.5 hr. The format is functional, organism-based. On the set-up: dose 300 mg/kg.
The subject of data set [9] is Mus musculus. As to the kind of experiment: Anticonvulsant activity in Mus musculus Swiss albino (mouse) assessed as protection against strychnine-induced seizure at 300 mg/kg, ip. Format: functional, organism-based. Further details: dose 300 mg/kg.
In data set [10] the test system is Mus musculus. As to the kind of experiment: Anticonvulsant activity in ip dosed Mus musculus Swiss albino (mouse) assessed as protection against maximal electroshock-induced seizure at 0.5 hr. The following applies: read-out: MED. Format: functional.
The test system of data set [11] is Mus musculus. Kind of data set: Anticonvulsant activity in Mus musculus Swiss albino (mouse) assessed as protection against pentylenetetrazole-induced seizure at 300 mg/kg, ip measured at 4 hr. The format is functional, organism-based. Further details: dose 300 mg/kg.
Data set [12] concerns Rattus norvegicus. Kind of data set: Anticonvulsant activity in Rattus norvegicus Wistar (rat) assessed as protection against maximal electroshock-induced seizure at 30 mg/kg, po measured at 1 hr. Format: functional, organism-based. On the set-up: dose 30 mg/kg.
Data set [13] relates to Rattus norvegicus. As to the kind of experiment: Anticonvulsant activity in Rattus norvegicus Wistar (rat) assessed as protection against maximal electroshock-induced seizure at 30 mg/kg, po measured at 0.5 hr. Format: functional, organism-based. On the set-up: dose 30 mg/kg.
In data set [14] the test system is Mus musculus. Kind of data set: Anticonvulsant activity in ip dosed Mus musculus Swiss albino (mouse) assessed as protection against maximal electroshock-induced seizure. The format is functional.
The test system of data set [15] is Mus musculus. Kind of data set: Neurotoxicity against ip dosed Mus musculus Swiss albino (mouse) at 4 hr by rota rod test. Format: toxicity, organism-based. The following applies: in vivo.
In data set [16] the test system is Mus musculus. As to the kind of experiment: Neurotoxicity against ip dosed Mus musculus Swiss albino (mouse) at 0.5 hr by rota rod test. Format: toxicity, organism-based. Particulars: in vivo.
Data set [17] concerns Mus musculus. As to the kind of experiment: Anticonvulsant activity in ip dosed Mus musculus Swiss albino (mouse) assessed as protection against strychnine-induced seizure at 0.5 hr. The format is functional. Particulars: read-out: MED.
The nature of data set [18]: Protection index, ratio TD50 for neurotoxicity to ED50 for protection against maximal electroshock-induced seizure in Mus musculus Swiss albino (mouse). The following applies: in vivo, read-out: Ratio TD50/ED50. Format: toxicity, organism-based.
In data set [19] the test system is Mus musculus. As to the kind of experiment: Neurotoxicity against Mus musculus Swiss albino (mouse) at 300 mg/kg, ip measured at 4 hr by rota rod test. The format is toxicity, organism-based. Particulars: in vivo. Further details: dose 300 mg/kg, route intraperitoneal.
Data set [20] has as its system Mus musculus. As to the kind of experiment: Anticonvulsant activity in ip dosed Mus musculus Swiss albino (mouse) assessed as protection against pentylenetetrazole-induced seizure. Format: functional.

SMILES strings stand for the structures. The source made the active and inactive calls. The rule behind the calls is not given here.

As for `COc1ccc(/C=N/Cc2cccnc2)cc1O`, the outcome in the data set on Rattus norvegicus [1], in the data set with Rattus norvegicus [2], in the data set on Rattus norvegicus [3], in the data set on Rattus norvegicus [12] and in the data set with Rattus norvegicus [13] was Active. The minimal effective dose in the data set with Mus musculus [4] stood at 30 mg/kg; in the data set on Mus musculus [5] it was 300 mg/kg; in the data set on Mus musculus [10], 30 mg/kg; in the data set on Mus musculus [17], 100 mg/kg. In addition, the TD50 (in general, the 50% point of the dose-response relation for the toxic effect studied) in data set [6] came to 198 mg/kg. Moreover, the outcome in the data set with Mus musculus [7], in the data set on Mus musculus [8], in the data set with Mus musculus [9] and in the data set on Mus musculus [11] was inactive. The 50% effective dose (ED50) (in general, the midpoint of the dose-response relation) with Mus musculus [14] was 6.39 mg/kg. Besides, the MTC amounted to 100 mg/kg with Mus musculus [15] and 300 mg/kg in the data set on Mus musculus [16]. Besides, in data set [18], the selectivity ratio was 31.

Regarding `Clc1ccc(/C=N/Cc2cccnc2)cc1`, the result with Rattus norvegicus [1], with Rattus norvegicus [3], in the data set with Mus musculus [7], in the data set with Mus musculus [8], in the data set on Mus musculus [9] and with Mus musculus [11] was inactive. Besides, the outcome in the data set on Rattus norvegicus [12] and with Rattus norvegicus [13] was inactive. In the data set on Rattus norvegicus [2], the result was Active. The minimal effective dose amounted to 100 mg/kg in the data set with Mus musculus [4], 300 mg/kg with Mus musculus [5], 100 mg/kg in the data set with Mus musculus [10] and 100 mg/kg in the data set with Mus musculus [17]. The compound further gave a TD50 in [6] of 125 mg/kg. The ED50 in the data set on Mus musculus [14] amounted to 53 mg/kg. For the same compound, the Activity result with Mus musculus [19] was “Non-toxic”. The MTC with Mus musculus [16] is 100 mg/kg. Besides, in [18], the selectivity ratio was found to be 2.35.

With `O=C1NC(=O)C(c2ccccc2)(c2ccccc2)N1`, the outcome with Rattus norvegicus [1], in the data set with Mus musculus [7] and in the data set with Mus musculus [9] was inactive. The result with Rattus norvegicus [2], with Rattus norvegicus [3], in the data set with Rattus norvegicus [12] and in the data set with Rattus norvegicus [13] was Active.

With `C/C(=N\Cc1cccnc1)c1cccc(N)c1`, the outcome in the data set with Rattus norvegicus [1], in the data set with Rattus norvegicus [2], with Rattus norvegicus [3], with Rattus norvegicus [12] and in the data set with Rattus norvegicus [13] was Active. Besides, the minimal effective dose was determined as 30 mg/kg in the data set with Mus musculus [4], 100 mg/kg with Mus musculus [5], 30 mg/kg in the data set with Mus musculus [10] and 30 mg/kg in the data set on Mus musculus [17]. The TD50 in data set [6] was 60.2 mg/kg. Besides, the result with Mus musculus [7], in the data set with Mus musculus [8], with Mus musculus [9] and in the data set on Mus musculus [11] was inactive. In addition, the ED50 with Mus musculus [14] stood at 8.64 mg/kg. In addition, the MTC with Mus musculus [15] and in the data set with Mus musculus [16] was 100 mg/kg in each case. In addition, the selectivity ratio in data set [18] worked out at 6.97.

As for `CCC1(c2ccccc2)C(=O)NC(=O)NC1=O` [PHENOBARBITAL], the ED50 is 13.2 mg/kg in the data set on Mus musculus [20] and 21.8 mg/kg with Mus musculus [14]. Besides, in the data set with Mus musculus [9], the outcome was inactive.

These data come from ChEMBL document CHEMBL3044874, “Synthesis and characterization of some heterocyclic schiff bases: potential anticonvulsant agents” (Med Chem Res, 2011).
